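Tested at 5 concentrations; 48 h exposure; 96-well plates; endpoints linearly interpolated, else capped at highest concentration. GI50: concentration for 50% inhibition of growth. The concentration for full growth arrest is given as TGI.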
How the values were obtained:
Experiment in all cases: NCI anticancer screen, dose series, 48 h
OVCAR-8 ovarian = system: OVCAR-8 ovarian
CCRF-CEM leukemia = system: CCRF-CEM leukemia
LOX IMVI melanoma = system: LOX IMVI melanoma
TK-10 renal = system: TK-10 renal
UACC-62 melanoma = system: UACC-62 melanoma
NCI-H23 lung = system: NCI-H23 lung
786-0 renal = system: 786-0 renal
NCI-H226 lung = system: NCI-H226 lung
EKVX NSCLC = system: EKVX NSCLC
BT-549 breast = system: BT-549 breast

c1ccc2c(c1)CCc1c(-c3ccncc3)n[nH]c1-2
TGI (OVCAR-8 ovarian): 88.6 µM
TGI (CCRF-CEM leukemia): 61.7 µM
TGI (LOX IMVI melanoma): 54.8 µM
TGI (TK-10 renal): > 100 µM
TGI (UACC-62 melanoma): 34.7 µM
TGI (NCI-H23 lung): 58.3 µM
TGI (786-0 renal): > 100 µM
TGI (NCI-H226 lung): 55.6 µM
TGI (EKVX NSCLC): 75.5 µM

COc1cc(C[P+](c2ccccc2)(c2ccccc2)c2ccccc2)cc(OC)c1OC
TGI (OVCAR-8 ovarian): > 100 µM
TGI (CCRF-CEM leukemia): > 100 µM
TGI (LOX IMVI melanoma): > 100 µM
TGI (TK-10 renal): > 100 µM
TGI (UACC-62 melanoma): > 100 µM
TGI (NCI-H23 lung): > 100 µM
TGI (786-0 renal): > 100 µM
TGI (NCI-H226 lung): > 100 µM
TGI (EKVX NSCLC): > 100 µM

CCCCCCCCCCCC[N+]12CC[N+](CCN)(CC1)CC2
TGI (OVCAR-8 ovarian): > 100 µM
TGI (CCRF-CEM leukemia): > 100 µM
TGI (LOX IMVI melanoma): > 100 µM
TGI (TK-10 renal): 39.7 µM
TGI (UACC-62 melanoma): > 100 µM
TGI (NCI-H23 lung): > 100 µM
TGI (786-0 renal): > 100 µM
TGI (NCI-H226 lung): > 100 µM
TGI (EKVX NSCLC): > 100 µM

C/C(=N\NC(N)=O)c1sc(-c2nc(C)c(/C(C)=N/NC(N)=O)s2)nc1C
TGI (OVCAR-8 ovarian): > 100 µM
TGI (CCRF-CEM leukemia): > 100 µM
TGI (LOX IMVI melanoma): > 100 µM
TGI (TK-10 renal): > 100 µM
TGI (UACC-62 melanoma): > 100 µM
TGI (NCI-H23 lung): > 100 µM
TGI (786-0 renal): > 100 µM
TGI (NCI-H226 lung): > 100 µM
TGI (EKVX NSCLC): > 100 µM

CC(C)C1CN(C(=O)OCc2ccccc2)C2N1C(=O)C2(C)OCc1ccccc1 (stereo not given)
TGI (OVCAR-8 ovarian): > 100 µM
TGI (CCRF-CEM leukemia): > 100 µM
TGI (LOX IMVI melanoma): > 100 µM
TGI (TK-10 renal): > 100 µM
TGI (UACC-62 melanoma): > 100 µM
TGI (NCI-H23 lung): > 100 µM
TGI (786-0 renal): > 100 µM
TGI (NCI-H226 lung): 81 µM
TGI (EKVX NSCLC): > 100 µM

COc1cc(/C=C2\CCCCC3=C2N=C2SC(C)=CN2C3c2cc(OC)c(OC)c(OC)c2)cc(OC)c1OC (stereo not given)
GI50 (OVCAR-8 ovarian): 11.9 µM
TGI (OVCAR-8 ovarian): > 100 µM
GI50 (CCRF-CEM leukemia): 34.7 µM
TGI (CCRF-CEM leukemia): > 100 µM
GI50 (LOX IMVI melanoma): > 100 µM
TGI (LOX IMVI melanoma): > 100 µM
GI50 (TK-10 renal): 22.4 µM
TGI (TK-10 renal): > 100 µM
GI50 (UACC-62 melanoma): 3.26 µM
TGI (UACC-62 melanoma): > 100 µM
GI50 (BT-549 breast): 1.15 µM
TGI (BT-549 breast): > 100 µM
GI50 (NCI-H23 lung): 32.2 µM
TGI (NCI-H23 lung): > 100 µM
GI50 (786-0 renal): 40.5 µM
TGI (786-0 renal): > 100 µM
GI50 (NCI-H226 lung): 11 µM
TGI (NCI-H226 lung): > 100 µM

C[N+](C)(C)CC(=O)N/N=C(/Cc1cc(=O)oc2cc(O)ccc12)C(=O)Nc1ccc(Cl)cc1
TGI (OVCAR-8 ovarian): > 100 µM
TGI (CCRF-CEM leukemia): > 100 µM
TGI (TK-10 renal): > 100 µM
TGI (UACC-62 melanoma): > 100 µM
TGI (NCI-H23 lung): > 100 µM
TGI (786-0 renal): > 100 µM
TGI (EKVX NSCLC): > 100 µM

CN1Nc2ccccc2CC1=O
TGI (OVCAR-8 ovarian): > 100 µM
TGI (CCRF-CEM leukemia): > 100 µM
TGI (LOX IMVI melanoma): > 100 µM
TGI (TK-10 renal): > 100 µM
TGI (UACC-62 melanoma): > 100 µM
TGI (NCI-H23 lung): > 100 µM
TGI (786-0 renal): > 100 µM
TGI (NCI-H226 lung): > 100 µM
TGI (EKVX NSCLC): > 100 µM

COc1cc(OC)c(OC)cc1/C=N/NC(=O)N/N=C/c1cc(OC)c(OC)cc1OC
TGI (OVCAR-8 ovarian): > 100 µM
TGI (CCRF-CEM leukemia): > 100 µM
TGI (LOX IMVI melanoma): > 100 µM
TGI (TK-10 renal): > 100 µM
TGI (UACC-62 melanoma): > 100 µM
TGI (NCI-H23 lung): > 100 µM
TGI (786-0 renal): > 100 µM
TGI (NCI-H226 lung): > 100 µM
TGI (EKVX NSCLC): > 100 µM

COCOCCC#CCO
TGI (OVCAR-8 ovarian): > 100 µM
TGI (CCRF-CEM leukemia): > 100 µM
TGI (LOX IMVI melanoma): > 100 µM
TGI (TK-10 renal): > 100 µM
TGI (UACC-62 melanoma): > 100 µM
TGI (NCI-H23 lung): > 100 µM
TGI (786-0 renal): > 100 µM
TGI (EKVX NSCLC): > 100 µM

CC12c3ccccc3C(OC=O)(c3ccccc31)C1(C)c3ccccc3C2(OC=O)c2ccccc21
TGI (OVCAR-8 ovarian): > 100 µM
TGI (CCRF-CEM leukemia): 89.1 µM
TGI (LOX IMVI melanoma): > 100 µM
TGI (TK-10 renal): > 100 µM
TGI (UACC-62 melanoma): > 100 µM
TGI (NCI-H23 lung): > 100 µM
TGI (786-0 renal): > 100 µM
TGI (NCI-H226 lung): > 100 µM
TGI (EKVX NSCLC): > 100 µM

CCCCCCCCc1cc2c(O)c(c1)Cc1cc(CCCCCCCC)cc(c1O)Cc1cc(CCCCCCCC)cc(c1O)Cc1cc(CCCCCCCC)cc(c1O)Cc1cc(CCCCCCCC)cc(c1O)Cc1cc(CCCCCCCC)cc(c1O)C2
TGI (OVCAR-8 ovarian): > 100 µM
TGI (CCRF-CEM leukemia): > 100 µM
TGI (LOX IMVI melanoma): > 100 µM
TGI (TK-10 renal): > 100 µM
TGI (UACC-62 melanoma): > 100 µM
TGI (NCI-H23 lung): > 100 µM
TGI (786-0 renal): > 100 µM

CNc1nc(N)nc(Nc2ccc(I)cc2)c1N=O
TGI (OVCAR-8 ovarian): > 100 µM
TGI (CCRF-CEM leukemia): > 100 µM
TGI (LOX IMVI melanoma): > 100 µM
TGI (TK-10 renal): > 100 µM
TGI (UACC-62 melanoma): > 100 µM
TGI (BT-549 breast): > 100 µM
TGI (NCI-H23 lung): > 100 µM
TGI (786-0 renal): > 100 µM
TGI (EKVX NSCLC): > 100 µM

O=C1c2cccc3cccc(c23)C(=O)N1CCN(CCO)CCO
TGI (OVCAR-8 ovarian): 35 µM
TGI (CCRF-CEM leukemia): > 100 µM
TGI (LOX IMVI melanoma): 34.5 µM
TGI (TK-10 renal): 62.3 µM
TGI (UACC-62 melanoma): 37.5 µM
TGI (NCI-H23 lung): 74.8 µM
TGI (786-0 renal): > 100 µM
TGI (NCI-H226 lung): 40.1 µM
TGI (EKVX NSCLC): 90.9 µM

O/N=C1\CCCCC1C(NO)c1ccccc1 (stereo not given)
TGI (OVCAR-8 ovarian): > 100 µM
TGI (CCRF-CEM leukemia): > 100 µM
TGI (LOX IMVI melanoma): > 100 µM
TGI (TK-10 renal): > 100 µM
TGI (UACC-62 melanoma): > 100 µM
TGI (NCI-H23 lung): > 100 µM
TGI (786-0 renal): > 100 µM
TGI (EKVX NSCLC): > 100 µM

Cc1cc2c(cc1C)[n+](=O)cc(C(=O)C/C(=N/NC(=S)NN)C(=O)Nc1cccc(C(F)(F)F)c1)n2[O-]
TGI (OVCAR-8 ovarian): > 100 µM
TGI (CCRF-CEM leukemia): > 100 µM
TGI (TK-10 renal): > 100 µM
TGI (UACC-62 melanoma): > 100 µM
TGI (NCI-H23 lung): > 100 µM
TGI (786-0 renal): > 100 µM
TGI (NCI-H226 lung): > 100 µM
TGI (EKVX NSCLC): > 100 µM

O=S(=O)(OI(OI(OS(=O)(=O)C(F)(F)F)c1ccccc1)c1ccccc1)C(F)(F)F
TGI (OVCAR-8 ovarian): > 100 µM
TGI (CCRF-CEM leukemia): 91.1 µM
TGI (LOX IMVI melanoma): > 100 µM
TGI (TK-10 renal): > 100 µM
TGI (UACC-62 melanoma): > 100 µM
TGI (786-0 renal): > 100 µM
TGI (NCI-H226 lung): > 100 µM
TGI (EKVX NSCLC): > 100 µM

O=C1C=C(Nc2ccc(Cl)cc2C(=O)c2ccccc2)c2ccccc2C1=O
TGI (OVCAR-8 ovarian): > 100 µM
TGI (CCRF-CEM leukemia): > 100 µM
TGI (LOX IMVI melanoma): > 100 µM
TGI (TK-10 renal): > 100 µM
TGI (UACC-62 melanoma): > 100 µM
TGI (NCI-H23 lung): > 100 µM
TGI (786-0 renal): > 100 µM
TGI (NCI-H226 lung): > 100 µM
TGI (EKVX NSCLC): > 100 µM

CCCCCCCC(=O)OCC1OC(n2cc(F)c(=O)[nH]c2=O)C(N)C(OC(=O)CCCCCCC)C1O (stereo not given)
TGI (OVCAR-8 ovarian): 31.6 µM
TGI (CCRF-CEM leukemia): 40.4 µM
TGI (LOX IMVI melanoma): 32.5 µM
TGI (TK-10 renal): 56.9 µM
TGI (UACC-62 melanoma): 32.4 µM
TGI (NCI-H23 lung): 35.9 µM
TGI (786-0 renal): 33.5 µM
TGI (EKVX NSCLC): 34 µM

CC[C@@H]1NC(C(=O)OC)Cc2c1[nH]c1ccccc21 (stereo not given in full)
TGI (OVCAR-8 ovarian): > 100 µM
TGI (CCRF-CEM leukemia): > 100 µM
TGI (LOX IMVI melanoma): > 100 µM
TGI (TK-10 renal): > 100 µM
TGI (UACC-62 melanoma): > 100 µM
TGI (NCI-H23 lung): > 100 µM
TGI (786-0 renal): > 100 µM
TGI (NCI-H226 lung): > 100 µM
TGI (EKVX NSCLC): > 100 µM

CC(=O)N/C(=C\c1ccccc1/C=C(\NC(C)=O)c1nc2cc(C)c(C)cc2[nH]1)c1nc2cc(C)c(C)cc2[nH]1
TGI (OVCAR-8 ovarian): 40.9 µM
TGI (CCRF-CEM leukemia): > 100 µM
TGI (TK-10 renal): > 100 µM
TGI (UACC-62 melanoma): 31.9 µM
TGI (NCI-H23 lung): 94.9 µM
TGI (786-0 renal): 46.6 µM
TGI (NCI-H226 lung): > 100 µM
TGI (EKVX NSCLC): 32.5 µM

O=Cc1cc2c(cc1-c1cc3c(cc1C=O)OCO3)OCO2
TGI (OVCAR-8 ovarian): > 100 µM
TGI (CCRF-CEM leukemia): 82.7 µM
TGI (LOX IMVI melanoma): 56.3 µM
TGI (TK-10 renal): > 100 µM
TGI (UACC-62 melanoma): > 100 µM
TGI (NCI-H23 lung): > 100 µM
TGI (786-0 renal): > 100 µM
TGI (NCI-H226 lung): > 100 µM
TGI (EKVX NSCLC): > 100 µM

O=C1C=C(c2c(O)ccc3ccccc23)c2cc(O)ccc2C1=O
TGI (OVCAR-8 ovarian): 28.9 µM
TGI (LOX IMVI melanoma): 25.3 µM
TGI (TK-10 renal): 35.4 µM
TGI (UACC-62 melanoma): 14.2 µM
TGI (NCI-H23 lung): 29.7 µM
TGI (786-0 renal): 33.9 µM
TGI (NCI-H226 lung): 44.1 µM
TGI (EKVX NSCLC): 38.2 µM

— PubChem BioAssay (NCI)
